Data from ChEMBL document CHEMBL4190297, “Cafestol, a Bioactive Substance in Coffee, Has Antidiabetic Properties in KKAy Mice” (J Nat Prod, 2017).
Calls of active or inactive are those of the source. No cut-off for these calls is given here.

Experiments:
[1] = species: Mus musculus; experiment: Antidiabetic activity in KK-Ay diabetic mouse model assessed as increase in HDL levels at 0.4 to 1.1 mg added daily to normal chow pellets for 10 weeks by colorimetric analysis; format: functional, organism-based
[2] = species: Mus musculus; experiment: Effect on PPARalpha mRNA expression levels in muscle of KK-Ay diabetic mouse model at 0.4 to 1.1 mg added daily to normal chow pellets for 10 weeks by qRT-PCR analysis; format: functional, organism-based
[3] = species: Mus musculus; experiment: Effect on Abca1 mRNA expression levels in liver of KK-Ay diabetic mouse model at 0.4 to 1.1 mg added daily to normal chow pellets for 10 weeks by qRT-PCR analysis; format: functional, organism-based
[4] = species: Mus musculus; experiment: Effect on G6PD mRNA expression levels in liver of KK-Ay diabetic mouse model at 0.4 to 1.1 mg added daily to normal chow pellets for 10 weeks by qRT-PCR analysis; format: functional, organism-based
[5] = species: Mus musculus; experiment: Effect on PPARgamma mRNA expression levels in muscle of KK-Ay diabetic mouse model at 0.4 to 1.1 mg added daily to normal chow pellets for 10 weeks by qRT-PCR analysis; format: functional, organism-based
[6] = species: Mus musculus; experiment: Effect on LXRalpha mRNA expression levels in adipose tissue of KK-Ay diabetic mouse model at 0.4 to 1.1 mg added daily to normal chow pellets for 10 weeks by qRT-PCR analysis; format: functional, organism-based
[7] = species: Mus musculus; experiment: Effect on Hprt1 mRNA expression levels in liver of KK-Ay diabetic mouse model at 0.4 to 1.1 mg added daily to normal chow pellets for 10 weeks by qRT-PCR analysis; format: functional, organism-based
[8] = species: Mus musculus; experiment: Effect on LXRalpha mRNA expression levels in muscle of KK-Ay diabetic mouse model at 0.4 to 1.1 mg added daily to normal chow pellets for 10 weeks by qRT-PCR analysis; format: functional, organism-based
[9] = species: Mus musculus; experiment: Effect on Mtor mRNA expression levels in liver of KK-Ay diabetic mouse model at 0.4 to 1.1 mg added daily to normal chow pellets for 10 weeks by qRT-PCR analysis; format: functional, organism-based
[10] = species: Mus musculus; experiment: Antidiabetic activity in KK-Ay diabetic mouse model assessed as non-fasting blood glucose level at 0.4 mg added daily to normal chow pellets for 10 weeks (reference value: 26.2 +/- 1.2 mmol/L); format: functional
[11] = species: Mus musculus; experiment: Effect on Acaca mRNA expression levels in adipose tissue of KK-Ay diabetic mouse model at 0.4 to 1.1 mg added daily to normal chow pellets for 10 weeks by qRT-PCR analysis; format: functional, organism-based
[12] = species: Mus musculus; experiment: Effect on Sirt1 mRNA expression levels in liver of KK-Ay diabetic mouse model at 0.4 to 1.1 mg added daily to normal chow pellets for 10 weeks by qRT-PCR analysis; format: functional, organism-based
[13] = species: Mus musculus; experiment: Effect on FAS mRNA expression levels in liver of KK-Ay diabetic mouse model at 0.4 to 1.1 mg added daily to normal chow pellets for 10 weeks by qRT-PCR analysis; format: functional, organism-based
[14] = species: Mus musculus; experiment: Effect on G6PD mRNA expression levels in adipose tissue of KK-Ay diabetic mouse model at 0.4 to 1.1 mg added daily to normal chow pellets for 10 weeks by qRT-PCR analysis; format: functional, organism-based
[15] = species: Mus musculus; experiment: Effect on FABP4 mRNA expression levels in muscle of KK-Ay diabetic mouse model at 0.4 to 1.1 mg added daily to normal chow pellets for 10 weeks by qRT-PCR analysis; format: functional, organism-based
[16] = species: Mus musculus; experiment: Toxicity in KK-Ay diabetic mouse model assessed as effect on average 24 hrs food consumption by measured food consumption at 0.4 mg added daily to normal chow pellets for 10 weeks (reference value: 4.7 +/- 0.2 g); format: organism-based; conditions: in vivo, po
[17] = species: Mus musculus; experiment: Effect on PPARalpha mRNA expression levels in adipose tissue of KK-Ay diabetic mouse model at 0.4 to 1.1 mg added daily to normal chow pellets for 10 weeks by qRT-PCR analysis; format: functional, organism-based
[18] = species: Mus musculus; experiment: Antidiabetic activity in KK-Ay diabetic mouse model assessed as mean fasting blood glucose level at 1.1 mg added daily to normal chow pellets for 10 weeks (reference value: 18 +/- 1.2 mmol/L); format: functional
[19] = species: Mus musculus; experiment: Effect on Pi3K mRNA expression levels in adipose tissue of KK-Ay diabetic mouse model at 0.4 to 1.1 mg added daily to normal chow pellets for 10 weeks by qRT-PCR analysis; format: functional, organism-based
[20] = species: Mus musculus; experiment: Antidiabetic activity in KK-Ay diabetic mouse model assessed as reduction in plasma glucagon levels at 1.1 mg added daily to normal chow pellets for 10 weeks relative to control by radioimmunoassay; format: functional; set-up: scale not given: the % may be the effect or the level left
[21] = species: Mus musculus; experiment: Effect on Abca1 mRNA expression levels in muscle of KK-Ay diabetic mouse model at 0.4 to 1.1 mg added daily to normal chow pellets for 10 weeks by qRT-PCR analysis; format: functional, organism-based
[22] = species: Mus musculus; experiment: Effect on Adipor1 mRNA expression levels in adipose tissue of KK-Ay diabetic mouse model at 0.4 to 1.1 mg added daily to normal chow pellets for 10 weeks by qRT-PCR analysis; format: functional, organism-based
[23] = species: Mus musculus; experiment: Effect on PKCdelta mRNA expression levels in adipose tissue of KK-Ay diabetic mouse model at 0.4 to 1.1 mg added daily to normal chow pellets for 10 weeks by qRT-PCR analysis; format: functional, organism-based
[24] = species: Mus musculus; experiment: Effect on SOD1 mRNA expression levels in muscle of KK-Ay diabetic mouse model at 0.4 to 1.1 mg added daily to normal chow pellets for 10 weeks by qRT-PCR analysis; format: functional, organism-based
[25] = species: Mus musculus; experiment: Effect on SOD1 mRNA expression levels in liver of KK-Ay diabetic mouse model at 0.4 to 1.1 mg added daily to normal chow pellets for 10 weeks by qRT-PCR analysis; format: functional, organism-based
[26] = species: Mus musculus; experiment: Effect on PKCdelta mRNA expression levels in liver of KK-Ay diabetic mouse model at 0.4 to 1.1 mg added daily to normal chow pellets for 10 weeks by qRT-PCR analysis; format: functional, organism-based
[27] = species: Mus musculus; experiment: Effect on Gcgr mRNA expression levels in adipose tissue of KK-Ay diabetic mouse model at 0.4 to 1.1 mg added daily to normal chow pellets for 10 weeks by qRT-PCR analysis; format: functional, organism-based
[28] = species: Mus musculus; experiment: Effect on CD36 mRNA expression levels in liver of KK-Ay diabetic mouse model at 0.4 to 1.1 mg added daily to normal chow pellets for 10 weeks by qRT-PCR analysis; format: functional, organism-based
[29] = species: Mus musculus; experiment: Effect on Lipc mRNA expression levels in muscle of KK-Ay diabetic mouse model at 0.4 to 1.1 mg added daily to normal chow pellets for 10 weeks by qRT-PCR analysis; format: functional, organism-based
[30] = species: Mus musculus; experiment: Effect on Abca1 mRNA expression levels in adipose tissue of KK-Ay diabetic mouse model at 0.4 to 1.1 mg added daily to normal chow pellets for 10 weeks by qRT-PCR analysis; format: functional, organism-based
[31] = species: Mus musculus; experiment: Effect on G6PD mRNA expression levels in muscle of KK-Ay diabetic mouse model at 0.4 to 1.1 mg added daily to normal chow pellets for 10 weeks by qRT-PCR analysis; format: functional, organism-based
[32] = species: Mus musculus; experiment: Effect on FABP4 mRNA expression levels in adipose tissue of KK-Ay diabetic mouse model at 0.4 to 1.1 mg added daily to normal chow pellets for 10 weeks by qRT-PCR analysis; format: functional, organism-based
[33] = species: Mus musculus; experiment: Effect on 18s rRNA expression levels in liver of KK-Ay diabetic mouse model at 0.4 to 1.1 mg added daily to normal chow pellets for 10 weeks by qRT-PCR analysis; format: functional, organism-based

C[C@@]12CCc3occc3[C@H]1CC[C@@]13C[C@H](CC[C@H]12)[C@@](O)(CO)C3
Activity [1]: inactive
Activity [2]: inactive
Activity [3]: inactive
Activity [4]: inactive
Activity [5]: inactive
Activity [6]: inactive
Activity [7]: inactive
Activity [8]: inactive
Activity [9]: inactive
Activity [10]: 17.3 mmol/L
Activity [11]: inactive
Activity [12]: inactive
Activity [13]: inactive
Activity [14]: inactive
Activity [15]: inactive
Activity [16]: 5.4 g
Activity [17]: inactive
Activity [18]: 12.9 mmol/L
Activity [19]: inactive
Activity [20]: 20%
Activity [21]: inactive
Activity [22]: inactive
Activity [23]: inactive
Activity [24]: inactive
Activity [25]: inactive
Activity [26]: inactive
Activity [27]: inactive
Activity [28]: inactive
Activity [29]: inactive
Activity [30]: inactive
Activity [31]: inactive
Activity [32]: inactive
Activity [33]: inactive
